Measured values as given in patent US20150246902A1, “SUBSTITUED BENZOFURAN COMPOUNDS AND METHODS OF USE THEREOF FOR THE TREATMENT OF VIRAL DISEASES” (priority 2011, published 2015).

Experiments:
[1] = test system: HCV replicon genotype 1a; experiment: microbe, parasite or virus in culture; assay type: cell-based; details: Hepatitis C virus, 96 h, HCV genotype 1a replicon cells, 96 hours incubation, NS3/4A ELISA readout
[2] = test system: HCV replicon genotype 1b; experiment: microbe, parasite or virus in culture; assay type: cell-based; details: Hepatitis C virus, 96 h, HCV genotype 1b replicon cells, 96 hours incubation, NS3/4A ELISA readout

| SMILES | IC50 [1] | IC50 [2] |
| --- | --- | --- |
| CNC(=O)c1c(-c2ccc(F)cc2)oc2cc(N(C)S(C)(=O)=O)c(-c3ccc4ncn(-c5ccc(OC)cc5)c4c3)cc12 [Compound 1, 2-(4-fluorophenyl)-5-(1-(4-methoxyphenyl)-1H-benzo[d]imidazol-6-yl)-N-methyl-6-(N-methylmethylsulfonamido)benzofuran-3-carboxamide] | 16.5 nM | 4.6 nM |
| CNC(=O)c1c(-c2ccc(F)cc2)oc2cc(N(C)S(C)(=O)=O)c(-c3ccc4ncn(-c5ccccc5)c4c3)cc12 [Compound 2] | 13.2 nM | 2.5 nM |
| CNC(=O)c1c(-c2ccc(F)cc2)oc2cc(N(C)S(C)(=O)=O)c(-c3ccc4ncn(-c5ccccc5F)c4c3)cc12 [Compound 3] | 68 nM | 5.8 nM |
| CNC(=O)c1c(-c2ccc(F)cc2)oc2cc(N(C)S(C)(=O)=O)c(-c3ccc4ncn(-c5cccc(OC)c5)c4c3)cc12 [Compound 4] | 26.5 nM | 2.5 nM |
| CNC(=O)c1c(-c2ccc(F)cc2)oc2cc(N(C)S(C)(=O)=O)c(-c3ccc4ncn(-c5ccc(C#N)cc5)c4c3)cc12 [Compound 5] | 2.1 nM | 0.8 nM |
| CNC(=O)c1c(-c2ccc(F)cc2)oc2cc(N(C)S(C)(=O)=O)c(-c3ccc4ncn(-c5cccc(C#N)c5)c4c3)cc12 [Compound 6] | 10.6 nM | 1.2 nM |
| CNC(=O)c1c(-c2ccc(F)cc2)oc2cc(N(C)S(C)(=O)=O)c(-c3ccc4ncn(-c5ccc(C(F)(F)F)cc5)c4c3)cc12 [Compound 7] | 2.6 nM | 2.2 nM |
| CNC(=O)c1c(-c2ccc(F)cc2)oc2cc(N(C)S(C)(=O)=O)c(-c3ccc4ncn(-c5cccc(C(F)(F)F)c5)c4c3)cc12 [Compound 8] | 27.7 nM | 3.9 nM |
| CNC(=O)c1c(-c2ccc(F)cc2)oc2cc(N(C)S(C)(=O)=O)c(-c3ccc4ncn(-c5ccccc5C(F)(F)F)c4c3)cc12 [Compound 9] | 75.8 nM | 7.1 nM |
| CNC(=O)c1c(-c2ccc(F)cc2)oc2cc(N(C)S(C)(=O)=O)c(-c3ccc4ncn(-c5ccc(Cl)cc5)c4c3)cc12 [Compound 10] | 4 nM | 3.6 nM |
| CNC(=O)c1c(-c2ccc(F)cc2)oc2cc(N(C)S(C)(=O)=O)c(-c3ccc4ncn(-c5ccccc5Cl)c4c3)cc12 [Compound 11] | 38.9 nM | 3.5 nM |
| CNC(=O)c1c(-c2ccc(F)cc2)oc2cc(N(C)S(C)(=O)=O)c(-c3ccc4ncn(-c5cccc(Cl)c5)c4c3)cc12 [Compound 12] | 11.7 nM | 2.6 nM |
| CNC(=O)c1c(-c2ccc(F)cc2)oc2cc(N(C)S(C)(=O)=O)c(-c3ccc4ncn(-c5ccc(S(C)(=O)=O)cc5)c4c3)cc12 [Compound 13] | 18.2 nM | 3.8 nM |
| CNC(=O)c1c(-c2ccc(F)cc2)oc2cc(N(C)S(C)(=O)=O)c(-c3ccc4ncn(-c5cccc(F)c5)c4c3)cc12 [Compound 14] | 2.7 nM | 1.2 nM |
| CNC(=O)c1c(-c2ccc(F)cc2)oc2cc(N(C)S(C)(=O)=O)c(-c3ccc4ncn(-c5ccc(F)cc5)c4c3)cc12 [Compound 15] | 5.5 nM | 1.2 nM |
| CNC(=O)c1c(-c2ccc(F)cc2)oc2cc(N(C)S(C)(=O)=O)c(-c3ccc4ncn(-c5cccnc5)c4c3)cc12 [Compound 16] | 37.2 nM | 4.6 nM |
| CNC(=O)c1c(-c2ccc(F)cc2)oc2cc(N(C)S(C)(=O)=O)c(-c3ccc4ncn(-c5ccc(OC(F)(F)F)cc5)c4c3)cc12 [Compound 17] | 37.6 nM | 12.8 nM |
| CNC(=O)c1c(-c2ccc(F)cc2)oc2cc(N(C)S(C)(=O)=O)c(-c3ccc4nc(C)n(-c5ccccc5)c4c3)cc12 [Compound 18] | 16.6 nM | 2.1 nM |

| SMILES | IC50 [1] | IC50 [2] |
| --- | --- | --- |
| CNC(=O)c1c(-c2ccc(F)cc2)oc2cc(N(C)S(C)(=O)=O)c(-c3ccc4nc(C)n(-c5ccc(F)cc5)c4c3)cc12 [Compound 19] | 12.8 nM | 2.2 nM |
| CNC(=O)c1c(-c2ccc(F)cc2)oc2cc(N(C)S(C)(=O)=O)c(-c3cc(F)c4ncn(-c5ccccc5)c4c3)cc12 [Compound 20] | 6.1 nM | 2.4 nM |
| CNC(=O)c1c(-c2ccc(F)cc2)oc2cc(N(C)S(C)(=O)=O)c(-c3ccc4c(c3)ncn4-c3cccnc3)cc12 [Compound 22] | 14.4 nM | 3.3 nM |
| CNC(=O)c1c(-c2ccc(F)cc2)oc2cc(N(C)S(C)(=O)=O)c(-c3ccc4ncn(C5CCN(C(=O)OC(C)(C)C)CC5)c4c3)cc12 [Compound 23] | 36.7 nM | 8.2 nM |
| CNC(=O)c1c(-c2ccc(F)cc2)oc2cc(N(C)S(C)(=O)=O)c(-c3ccc4ncn(C5CCCN(C(=O)OC(C)(C)C)C5)c4c3)cc12 (stereo not drawn) [Compound 24] | 760 nM | 82.6 nM |
| CNC(=O)c1c(-c2ccc(F)cc2)oc2cc(N(C)S(C)(=O)=O)c(-c3ccc4ncn(C5CCCNC5)c4c3)cc12 (stereo not drawn) [Compound 25] | 585 nM | 51.1 nM |
| CNC(=O)c1c(-c2ccc(F)cc2)oc2cc(N(C)S(C)(=O)=O)c(-c3ccc4ncn(C5CCOCC5)c4c3)cc12 [Compound 26] | 64.7 nM | 12 nM |
| CNC(=O)c1c(-c2ccc(F)cc2)oc2cc(N(C)S(C)(=O)=O)c(-c3cc(F)c4ncn(-c5ccc(F)cc5)c4c3)cc12 [Compound 28] | 4.2 nM | 3.3 nM |
| CNC(=O)c1c(-c2ccc(F)cc2)oc2cc(N(C)S(C)(=O)=O)c(-c3cc(F)c4ncn(-c5ccc(F)c(F)c5)c4c3)cc12 [Compound 29] | 5 nM | 3.3 nM |
| CNC(=O)c1c(-c2ccc(F)cc2)oc2cc(N(C)S(C)(=O)=O)c(-c3cc(F)c4ncn(-c5cc(F)cc(F)c5)c4c3)cc12 [Compound 30] | 6.3 nM | 2.8 nM |
| CNC(=O)c1c(-c2ccc(F)cc2)oc2cc(N(C)S(C)(=O)=O)c(-c3cc(F)c4ncn(-c5cc(F)c(F)c(F)c5)c4c3)cc12 [Compound 31] | 3.4 nM | 3.1 nM |
| CNC(=O)c1c(-c2ccc(F)cc2)oc2cc(N(C)S(C)(=O)=O)c(-c3cc(F)c4nc(C)n(-c5ccc(F)c(C#N)c5)c4c3)cc12 [Compound 32] | 5.3 nM | 3.1 nM |
| CNC(=O)c1c(-c2ccc(F)cc2)oc2cc(N(C)S(C)(=O)=O)c(-c3cc(OC)c4nc(C)n(-c5ccc(F)cc5)c4c3)cc12 [Compound 33] | 13.7 nM | 8.8 nM |
| CNC(=O)c1c(-c2ccc(F)cc2)oc2cc(N(C)S(C)(=O)=O)c(-c3cc(F)c4nc(C)n(-c5cc(F)cc(F)c5)c4c3)cc12 [Compound 34] | 24.8 nM | 4.3 nM |
| CNC(=O)c1c(-c2ccc(F)cc2)oc2cc(N(C)S(C)(=O)=O)c(-c3ccc4ncn(-c5ccc(F)cn5)c4c3)cc12 [Compound 35] | 35.2 nM | 5.9 nM |
| CNC(=O)c1c(-c2ccc(F)cc2)oc2cc(N(C)S(C)(=O)=O)c(-c3ccc4ncn(-c5cncc(F)c5)c4c3)cc12 [Compound 36] | 36.2 nM | 6.5 nM |
| CNC(=O)c1c(-c2ccc(F)cc2)oc2cc(N(C)S(C)(=O)=O)c(-c3cc(OC)c4nc(C)n(-c5cc(F)cc(F)c5)c4c3)cc12 [Compound 37] | 6.8 nM | 4.3 nM |
| CNC(=O)c1c(-c2ccc(F)cc2)oc2cc(N(C)S(C)(=O)=O)c(-c3cccc4c3ncn4-c3ccccc3)cc12 [Compound 38] | 629 nM | 155 nM |
